Measurements: patent US11401246B2, “Triazole glycolate oxidase inhibitors” (CANTERO THERAPEUTICS, INC., priority 2018, dated 2022)
pIC50: −log10 of the molar value.

What follows are molecules tested against T1, human glycolate oxidase (hGO) (Homo sapiens, UniProt Q9UJM8) (assay: In vitro inhibition of human glycolate oxidase (enzymatic assay, HRP-coupled Trinder reaction)). Details: not given.
T1 construct: His-tag (6 histidines, pET-15b) (N); made in house; host or cells: E. coli BL21 (DE3)
T1 sequence (Q9UJM8 1-370): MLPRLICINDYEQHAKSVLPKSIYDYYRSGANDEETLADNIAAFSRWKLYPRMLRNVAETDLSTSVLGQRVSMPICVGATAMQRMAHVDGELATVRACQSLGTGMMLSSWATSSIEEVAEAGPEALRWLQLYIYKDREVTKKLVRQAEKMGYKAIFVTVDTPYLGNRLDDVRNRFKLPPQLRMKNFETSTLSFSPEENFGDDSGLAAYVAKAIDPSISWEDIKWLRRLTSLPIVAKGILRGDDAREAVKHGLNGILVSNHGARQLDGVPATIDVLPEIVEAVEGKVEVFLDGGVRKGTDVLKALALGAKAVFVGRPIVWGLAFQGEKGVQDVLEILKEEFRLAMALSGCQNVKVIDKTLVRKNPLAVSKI
Assay type: biochemical
Description: The catalytic reactions used for assaying glycolate oxidase activity in the presence of compounds according to the present disclosure are outlined in FIG. 2. Glycolate oxidase (GO)-catalyzed conversion of glycolate to glyoxylate (top reaction), with the concomitant reduction of the cofactor flavin mononucleotide (FMN), uses molecular oxygen (O2) for recovering its oxidative state, releasing hydrogen peroxide (H2O2). The Trinder reaction (bottom reaction), in which horseradish peroxidase (HRP) uses hydrogen peroxide, 4-aminoantipyrine and a phenol derivative (sulphonated DCIP) to generate a quinoneimine dye that is spectrophotometrically measured.
Human glycolate oxidase (hGO) expression. BL21 (DE3) E. coli transformed with recombinant pET-15b expression vector with the N-terminal His-tag human Hao1 cDNA was grown in LB medium in the presence of 0.1 mg/ml ampicillin. For purification of recombinant human glycolate oxidase (hGO) expressed in BL21 E. coli, bacteria pellets were thawed and re-suspended in 2 ml lysis buffer (50 mM NaH2PO4, 300 mM NaCl, 10 mM imidazole, 50 μM FMN, pH 7.5), and then treated for 30 minutes with 1 mM PMSF for protease inhibition, 0.1% Triton X-100 and 0.2 mg/ml lysozyme to break cellular membranes. After sonication, cells were centrifuged and the supernatant containing the total cellular extract (pre-column fraction) was loaded into a Ni-NTA agarose column and incubated for 30 minutes at 4° C. to allow binding of the 6 histidine tail of recombinant GO protein to the nickel ions. The column was washed with two bed volumes of lysis buffer with 20 mM imidazole to eliminate unbound proteins (wash fraction). GO was eluted using the same buffer with 300 mM imidazole. Fraction containing purified GO was dialyzed against 300 ml of dialysis buffer (50 mM NaH2PO4, 300 mM NaCl, pH 7.5) at 4° C. in agitation overnight, and then kept at 4° C. in darkness. Protein were quantified by the bicinchoninic acid (BCA) assay.
Enzymatic assays. Enzymatic activity of hGO was determined in the presence of glycolate as substrate (40 mM glycolic acid) and phosphate buffer (50 mM KPO4, 0.1 mM EDTA, pH 7). The production of glyoxylate was indirectly measured by the quantification of hydrogen peroxide formed during the first oxidation reaction. […] Enzymatic activity was calculated at 1 minute after initiation of the Trinder reaction.
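Throughout, for % Inhibition: values are IC50 potency bins despite the % Inhibition label.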

`COc1ccc(-c2ccc(Oc3[nH]nnc3C(=O)O)cc2)cc1` [Example 22, 5-((4′-methoxy-[1,1′-biphenyl]-4-yl)oxy)-1H-1,2,3-triazole-4-carboxylic Acid] and `O=C(O)c1nn[nH]c1Oc1ccc(-c2ccccc2)cc1` [Example 42, 5-([1,1′-biphenyl]-4-yloxy)-1H-1,2,3-triazole-4-carboxylic Acid] fall in the same range of pIC50: 6.70 to 7.00 for the first, 6.70 to 7.00 for the second.

Compared with `O=C(O)c1nn[nH]c1Oc1ccc(Cl)cc1` [Example 36, 5-(4-chlorophenoxy)-1H-1,2,3-triazole-4-carboxylic Acid], `N#Cc1cccc(-c2ccc(Oc3[nH]nnc3C(=O)O)cc2)c1` [Example 20, 5-((3′-cyano-[1,1′-biphenyl]-4-yl)oxy)-1H-1,2,3-triazole-4-carboxylic Acid] is lower in pIC50: greater than 7.00 for the first, 6.70 to 7.00 for the second. The first is the more potent here.

Same assay, conditions: recombinant hGO, 40 mM glycolic acid, pH 7, read at 515 nm, 1 minute after initiation of Trinder reaction; read-out: % Inhibition

`O=C(O)c1nn[nH]c1Oc1ccc(-c2ccc(F)c(Cl)c2)cc1` [Example 33, 5-((3′-chloro-4′-fluoro-[1,1′-biphenyl]-4-yl)oxy)-1H-1,2,3-triazole-4-carboxylic Acid] and `COc1ccc(-c2ccc(Oc3[nH]nnc3C(=O)O)cc2)cn1` [Example 100, 5-(4-(6-methoxypyridin-3-yl)phenoxy)-1H-1,2,3-triazole-4-carboxylic Acid] cannot be ordered by pIC50: greater than 7.00 for the first, greater than 7.00 for the second.

First: CS(=O)(=O)c1ccc(-c2ccc(Oc3[nH]nnc3C(=O)O)c(F)c2)cc1 [Example 105, 5-((3-fluoro-4′-(methylsulfonyl)-[1,1′-biphenyl]-4-yl)oxy)-1H-1,2,3-triazole-4-carboxylic Acid]
Second: O=C(O)c1nn[nH]c1Oc1ccc(-c2cccnc2F)cc1F [Example 98, 5-(2-fluoro-4-(2-fluoropyridin-3-yl)phenoxy)-1H-1,2,3-triazole-4-carboxylic Acid]
The pIC50 of the first is lower: 6.70 to 7.00 for the first, greater than 7.00 for the second.

First: NC(=O)c1ccc(Oc2[nH]nnc2C(=O)O)cc1 [Example 56, 5-(4-carbamoylphenoxy)-1H-1,2,3-triazole-4-carboxylic Acid]
Second: NC(=O)c1ccc(-c2cccc(Oc3[nH]nnc3C(=O)O)c2)cc1 [Example 63, 5-((4′-carbamoyl-[1,1′-biphenyl]-3-yl)oxy)-1H-1,2,3-triazole-4-carboxylic Acid]
The pIC50 of the first is lower: less than 6.70 for the first, 6.70 to 7.00 for the second. The second is the more potent here.

First: O=C(O)c1nn[nH]c1Oc1ccc(-c2cccnc2Cl)cc1 [Example 93, 5-(4-(2-chloropyridin-3-yl)phenoxy)-1H-1,2,3-triazole-4-carboxylic Acid]
Second: O=C(O)c1nn[nH]c1Oc1ccc(-c2nccs2)cc1 [Example 25, 5-(4-(thiazol-2-yl)phenoxy)-1H-1,2,3-triazole-4-carboxylic Acid]
The pIC50 of the first is higher: greater than 7.00 for the first, 6.70 to 7.00 for the second.

`O=C(O)c1nn[nH]c1Oc1ccc(Br)cc1F` [Example 51, 5-(4-bromo-2-fluorophenoxy)-1H-1,2,3-triazole-4-carboxylic Acid] and `Cc1ncc(-c2cccc(Oc3[nH]nnc3C(=O)O)c2)cn1` [Example 59, 5-(3-(2-methylpyrimidin-5-yl)phenoxy)-1H-1,2,3-triazole-4-carboxylic Acid] cannot be ordered by pIC50: greater than 7.00 for the first, greater than 7.00 for the second.

First: O=C(O)c1nn[nH]c1Oc1ccc(C2CCC3(CC2)CC3(F)F)cc1 (stereo not drawn) [Example 126, 5-(4-(1,1-Difluorospiro[2.5]octan-6-yl)phenoxy)-1H-1,2,3-triazole-4-carboxylic acid]
Second: O=C(O)c1nn[nH]c1Oc1cccc(-c2ccc(C(F)(F)F)cc2)c1 [Example 114, 5-((4′-(trifluoromethyl)-[1,1′-biphenyl]-3-yl)oxy)-1H-1,2,3-triazole-4-carboxylic Acid]
The pIC50 of the first is lower: less than 6.70 for the first, 6.70 to 7.00 for the second.

`O=C(O)c1nn[nH]c1Sc1ccc(-c2cccnc2F)cc1` [Example 62, 5-((4-(2-fluoropyridin-3-yl)phenyl)thio)-1H-1,2,3-triazole-4-carboxylic Acid] and `O=C(O)c1nn[nH]c1Oc1ccc(-c2ccc(-c3cccnc3)cc2)cc1` [Example 120, 5-[4[4-(3-pyridyl)phenyl]phenoxy]-1H-1,2,3-triazole-4-carboxylic Acid] fall in the same range of pIC50: 6.70 to 7.00 for the first, 6.70 to 7.00 for the second.
